These results are taken from publication PMC8592027, “Structure-Guided Design of D-Galactal Derivatives with High Affinity and Selectivity for the Galectin-8 N-Terminal Domain” (ACS Medicinal Chemistry Letters, 2021).

“Also recorded” adds a separate entry of the source.

Test [1] deals with MDA-MB-231 cancer cell line. Description: MTS metabolic activity (cytotoxicity) assay, MDA-MB-231. The class given is cell-based, human. As to conditions: concentrations 1 to 100 μM, 24 hours. On the procedure:
(§1) We have investigated the cytotoxicity of the compounds 1, 6a, and 6c via a (3-(4,5-dimethylthiazol-2-yl)-5-(3-carboxymethoxyphenyl)-2-(4-sulfophenyl)-2H-tetrazolium) (MTS) assay in K562 and MDA-MB-231 cancer cell lines to establish the direct antitumor activity of compounds, as well as human peripheral blood mononuclear cells (PBMCs), to evaluate their safety.
(§2) Metabolic activity assay:
(§3) The metabolic activities of the cell lines were determined using the CellTiter 96 Aqueous One Solution cell proliferation assay (MTS Reagents, Promega, Madison, WI, USA), according to the manufacturer instructions. Briefly, the cells were treated with the selected compounds in 0.1% dimethyl sulfoxide (DMSO; vehicle), 0.1% DMSO (control vehicle), or medium (control) and seeded at a cell density of 5,500 cells/well (MDA-MB-231 cells) or 4 x 10^4 cells/well (K562 cells), 7000 cells/well (HepG2 cells) or 1 x 10^5 cells/well (human PBMCs) in duplicates (MDA-MB-231, K562, and […]) or triplicates for HepG2 cells (100 µL), in sterile 96-well plates. For the MDA-MB-231 and HepG2, the cells were left to adhere overnight before adding the compounds. The plates were then incubated for 24 hours (48 hours for HepG2), after which 15 µL of MTS reagent was added to each well. After 30-90 minute of incubation, the absorbance was measured at 492 nm using a microplate reader (Synergy HTX Multi-Mode; BioTek Instruments, Inc., VT, USA). […]
(§4) Bead Array Human inflammatory cytokine Kit (content: IL-1, IL-6, IL-8, IL-10, IL-12p). The flow cytometric analyses were performed on an Attune NxT flow cytometer (Thermo Fisher Scientific, […]
(§5) Data are represented as means ± standard deviation (SD) from three representative independent experiments.
(§6) All experiments were performed at least twice, with average values expressed as means ± SD. All data were analyzed with the statistical software GraphPad Prism 8.0 (GraphPad Software, Inc., CA, USA). by one-way ANOVA followed with Dunnett’s multiple compar ison test. Differences were considered non-significant for p > 0.05, and significant (*) for p < 0.05. […]

In test [2] the target is T1, galectin-8N (galectin-8 N-terminal domain) (Homo sapiens, UniProt O00214).
T1 construct: selective ligand for the galectin-8 N-terminal domain (galectin-8N); made in house
T1 sequence (O00214 19-152 limits assumed): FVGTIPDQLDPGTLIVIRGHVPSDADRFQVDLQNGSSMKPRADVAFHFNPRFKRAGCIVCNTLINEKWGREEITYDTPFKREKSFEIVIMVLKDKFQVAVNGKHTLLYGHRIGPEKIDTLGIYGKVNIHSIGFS
Description: Competitive fluorescence polarization assay, galectin-8N. In kind it is binding. How it is done: All synthesized D-galactal derivatives had higher binding affinities for galectin-8N than D-galactal 3.
(§7) 1. Competitive fluorescence polarization experiments:
(§8) Human galectins -1, -3, -4N, -4C, -7, -8N, -9N, and -9C were expressed and purified as previously described 30,41. Fluorescence polarisation experiments were performed using the PHERAstar FS plat e reader (software version 2.10 R3), and the fluorescence anisotropy of fluorescein tagged probes was measured by excitation at 485 nm and emission at 520 nm. The specific conditions for galectins -1, -3, -4N, -4C, -7, -8N, -9N, and -9C were kept as report ed30,41,42. The synthesised compounds were dissolved in pure DMSO at 20 mM concentration and diluted in PBS to 3-6 different concentrations, and each concentration was tested in duplicate. The highest inhibitor concentrations tested were 1.5 mM. The

In test [3] the test system is K562 cancer cell line. Description: MTS metabolic activity (cytotoxicity) assay, K562. In kind it is cell-based. As to conditions: concentrations 1 to 100 μM, 24 hours. On the procedure:
as §1, §2, §3, §4, §5, §6

The target in test [4] is T2, galectin-3 (Homo sapiens, UniProt P17931).
T2 construct: made in house
Description: Competitive fluorescence polarization assay, galectin-3. In kind it is binding. As to conditions: mean ± SEM of n = 4–8. How it is done:
as §7, §8

T2 sequence (P17931 whole entry): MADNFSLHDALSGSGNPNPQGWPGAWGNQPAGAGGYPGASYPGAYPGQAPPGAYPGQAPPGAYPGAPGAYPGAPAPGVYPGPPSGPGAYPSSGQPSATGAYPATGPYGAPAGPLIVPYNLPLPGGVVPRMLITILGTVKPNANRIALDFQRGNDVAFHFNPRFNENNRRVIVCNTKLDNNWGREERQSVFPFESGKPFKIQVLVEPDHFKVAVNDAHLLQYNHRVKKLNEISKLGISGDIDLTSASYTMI

As for `Cn1c(CO[C@@H]2C=CO[C@H](CO)[C@@H]2O)nc2ccc(C(=O)O)cc21` [6a], the “cell viability (MTS), MDA-MB-231” value in test [1] was “None of the compounds decreased the viability; also recorded: no effect on the viability”. Moreover, the equilibrium dissociation constant (Kd) in test [2] (mean ± SEM of n = 4–8) was 48 ± 4 µM; in test [4], 690 ± 30 µM. Besides, the “selectivity for galectin-8N over galectin-1” value in test [2] (ratio of Kd values) was 27 fold. In addition, the “selectivity for galectin-8N over galectin-3” value in test [2] (ratio of Kd values) was 15 fold. Moreover, the “cell viability (MTS), K562” value in test [3] is given as “None of the compounds decreased the viability”.

In general, Kd refers to the constant that tells how readily two partners part at equilibrium. The low end stands for tighter binding, the high end for weaker binding.
